The source of these data is patent US10590140B2, “Tetrahydropyrimidodiazepine and dihydropyridodiazepine compounds for treating pain and pain related conditions” (ESTEVE PHARMACEUTICALS, S.A., priority 2016, dated 2020).

Bounds are passed on as bounds.

The target of the assay is human α2δ-1 subunit of Cav2.2 calcium channel (Homo sapiens (Human), UniProt P54289). As to the kind of experiment: Binding assay to human α2δ-1 subunit of Cav2.2 calcium channel ([3H]-Gabapentin). The following applies: binding to α2δ-1, [3H]-Gabapentin; read-out: Ki (nM) α2δ-1. On the procedure: Binding Assay to Human α2δ-1 Subunit of Cav2.2 Calcium Channel.
human α2δ-1 subunit of Cav2.2 calcium channel, sequence (P54289 25-1103): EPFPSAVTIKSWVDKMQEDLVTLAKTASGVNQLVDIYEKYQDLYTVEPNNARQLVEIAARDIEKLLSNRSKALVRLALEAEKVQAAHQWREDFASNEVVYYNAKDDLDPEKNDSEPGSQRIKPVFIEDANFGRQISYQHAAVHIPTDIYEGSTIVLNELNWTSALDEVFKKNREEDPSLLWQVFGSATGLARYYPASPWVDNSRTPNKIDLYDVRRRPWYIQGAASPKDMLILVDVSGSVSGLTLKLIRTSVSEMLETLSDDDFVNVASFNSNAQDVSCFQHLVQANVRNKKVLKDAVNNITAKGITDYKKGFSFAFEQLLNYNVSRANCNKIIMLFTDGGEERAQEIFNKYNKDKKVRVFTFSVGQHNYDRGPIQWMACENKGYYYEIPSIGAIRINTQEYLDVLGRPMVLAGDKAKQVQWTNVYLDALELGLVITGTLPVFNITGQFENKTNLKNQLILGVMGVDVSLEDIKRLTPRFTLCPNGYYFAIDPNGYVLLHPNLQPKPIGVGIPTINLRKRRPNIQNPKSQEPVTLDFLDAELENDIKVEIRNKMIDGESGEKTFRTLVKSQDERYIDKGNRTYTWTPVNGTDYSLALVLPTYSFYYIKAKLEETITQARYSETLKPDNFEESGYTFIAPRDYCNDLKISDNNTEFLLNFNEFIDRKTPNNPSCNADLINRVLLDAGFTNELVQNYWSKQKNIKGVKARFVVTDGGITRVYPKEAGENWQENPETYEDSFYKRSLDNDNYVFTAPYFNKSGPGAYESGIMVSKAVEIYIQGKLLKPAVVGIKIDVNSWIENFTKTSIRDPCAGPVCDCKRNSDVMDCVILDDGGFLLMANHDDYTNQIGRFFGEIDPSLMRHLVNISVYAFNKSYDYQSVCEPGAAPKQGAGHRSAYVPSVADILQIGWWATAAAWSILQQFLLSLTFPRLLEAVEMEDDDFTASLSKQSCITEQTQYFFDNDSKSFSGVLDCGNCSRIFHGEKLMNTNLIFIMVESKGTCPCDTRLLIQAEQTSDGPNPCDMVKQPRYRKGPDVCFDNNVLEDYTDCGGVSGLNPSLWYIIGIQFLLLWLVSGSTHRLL
NSB (non specific binding) was measured by adding 10 μM pregabalin. After 60 min incubation at 27° C., binding reaction was terminated by filtering through Multiscreen GF/C (Millipore) presoaked in 0.5% polyethyleneimine in Vacuum Manifold Station, followed by 3 washes with ice-cold filtration buffer containing 50 mM Tris-HCl, pH 7.4.
Filter plates were dried at 60° C. for 1 hour and 30 μl of scintillation cocktail were added to each well before radioactivity reading.
A word on the Ki: it is the equilibrium dissociation constant of an inhibitor or competing ligand from its target. As for `CSc1ncc2c(n1)N(C)CCN(c1ccccc1OC(CCN(C)C(=O)OC(C)(C)C)c1ccccc1)C2=O` (centres unmarked) [Example 48, tert-butyl methyl(3-(2-(9-methyl-2-(methylthio)-5-oxo-5,7,8,9-tetrahydro-6H-pyrimido [4,5-e][1,4]diazepin-6-yl)phenoxy)-3-phenylpropyl) carbamate], the Ki is above 3000 nM.
On to `CSc1ncc2c(n1)N(C)CCN(c1cccc(COC(CCN(C)C(=O)OC(C)(C)C)C(C)C)c1)C2=O` (centres unmarked) [Example 49, tert-butyl methyl (4-methyl-3-((3-(9-methyl-2-(methylthio)-5-oxo-5,7,8,9-tetrahydro-6H-pyrimido[4,5-e][1,4]diazepin-6-yl)benzyl)oxy)pentyl) carbamate], for which the Ki is above 3000 nM.
For `CSc1ncc2c(n1)N(C)CCN(c1cccc(COC(C)CCN(C)C(=O)OC(C)(C)C)c1)C2=O` (centres unmarked) [Example 50, tert-butyl methyl(3-((3-(9-methyl-2-(methylthio)-5-oxo-5,7,8,9-tetrahydro-6H-pyrimido[4,5-e][1,4]diazepin-6-yl)benzyl)oxy)butyl) carbamate] the value was above 3000 nM.
In the case of `CSc1ncc2c(n1)N(C)CCN(c1cccc(OC(CCN(C)C(=O)OCC[Si](C)(C)C)c3cccs3)c1)C2=O` (centres unmarked) [Example 51, 2-(trimethyl-silyl)ethyl methyl(3-(3-(9-methyl-2-(methylthio)-5-oxo-5,7,8,9-tetrahydro-6H-pyrimido[4,5-e][1,4]diazepin-6-yl)phenoxy)-3-(thiophen-2-yl)propyl) carbamate], the Ki is above 3000 nM.
For `CSc1ncc2c(n1)N(C)CCN(c1cccc(OC(CCN(C)C(=O)OC(C)(C)C)c3ccccn3)c1)C2=O` (centres unmarked) [Example 52, tert-butyl methyl(3-(3-(9-methyl-2-(methylthio)-5-oxo-5,7,8,9-tetrahydro-6H-pyrimido[4,5-e][1,4]diazepin-6-yl)phenoxy)-3-(pyridin-2-yl)propyl) carbamate] the value was above 3000 nM; for `CSc1ncc2c(n1)N(C)CCN(c1cccc(OC(CCN(C)C(=O)OC(C)(C)C)c3cccnc3)c1)C2=O` (centres unmarked) [Example 53, tert-butyl methyl(3-(3-(9-methyl-2-(methylthio)-5-oxo-5,7,8,9-tetrahydro-6H-pyrimido[4,5-e][1,4]diazepin-6-yl)phenoxy)-3-(pyridin-3-yl)propyl) carbamate], above 3000 nM.
For `CCNc1cc2c(cn1)C(=O)N(c1cccc(-c3nnc(C)o3)c1)CCN2C` [Example 54, 8-(ethylamino)-1-methyl-4-(3-(5-methyl-1,3,4-oxadiazol-2-yl)phenyl)-1,2,3,4-tetrahydro-5H-pyrido[4,3-e][1,4]diazepin-5-one] the value was 100 to 500 nM; for `CCNc1cc2c(cn1)C(=O)N(c1cccc(-c3nnc(C)n3CC)c1)CCN2C` [Example 55, 4-(3-(4-ethyl-5-methyl-4H-1,2,4-triazol-3-yl)phenyl)-8-(ethylamino)-1-methyl-1,2,3,4-tetrahydro-5H-pyrido[4,3-e][1,4]diazepin-5-one], 500 to 3000 nM; for `CCNc1cc2c(cn1)C(=O)N(c1cccc(OC(CCN(C)C(=O)OCC[Si](C)(C)C)c3cccs3)c1)CCN2C` (centres unmarked) [Example 58, 2-(trimethyl-silyl)ethyl (3-(3-(8-(ethylamino)-1-methyl-5-oxo-1,2,3,5-tetrahydro-4H-pyrido[4,3-e] [1,4]diazepin-4-yl)phenoxy)-3-(thiophen-2-yl)propyl)(methyl) carbamate], above 3000 nM.
For `CN(CCC(Oc1cccc(N2CCN(C)c3cc(N(C)C)ncc3C2=O)c1)c1cccs1)C(=O)OCC[Si](C)(C)C` (centres unmarked) [Example 59, 2-(trimethyl-silyl)ethyl (3-(3-(8-(dimethylamino)-1-methyl-5-oxo-1,2,3,5-tetrahydro-4H-pyrido[4,3-e] [1,4]diazepin-4-yl)phenoxy)-3-(thiophen-2-yl)propyl)(methyl) carbamate] the value was above 3000 nM; for `CCNc1cc2c(cn1)C(=O)N(c1cccc(COC(CCN(C)C(=O)OCC[Si](C)(C)C)c3cccs3)c1)CCN2C` (centres unmarked) [Example 60, 2-(trimethyl-silyl)ethyl (3-((3-(8-(ethylamino)-1-methyl-5-oxo-1,2,3,5-tetrahydro-4H-pyrido[4,3-e] [1,4]diazepin-4-yl)benzyl)oxy)-3-(thiophen-2-yl)propyl) (methyl) carbamate], above 3000 nM; for `CSc1ncc2c(n1)N(C)CCN(Cc1cccc(OC(CN(C)C(=O)OC(C)(C)C)c3ccccc3)c1)C2=O` (centres unmarked) [Example 62, tert-Butyl methyl(2-(3-((9-methyl-2-(methylthio)-5-oxo-5,7,8,9-tetrahydro-6H-pyrimido[4,5-e][1,4]diazepin-6-yl)methyl)phenoxy)-2-phenylethyl) carbamate], above 3000 nM.
Take `CSc1ncc2c(n1)N(C)CCN(Cc1ccc(OC(CN(C)C(=O)OC(C)(C)C)c3ccccc3)cc1)C2=O` (centres unmarked) [Example 63, tert-butyl methyl(2-(4-((9-methyl-2-(methylthio)-5-oxo-5,7,8,9-tetrahydro-6H-pyrimido[4,5-e][1,4]diazepin-6-yl)methyl)phenoxy)-2-phenylethyl)carbamate]: the Ki is above 3000 nM.
Regarding `CSc1ncc2c(n1)N(C)CCN(Cc1ccc(CN(C)C(=O)OC(C)(C)C)cc1)C2=O` [Example 64, tert-butyl methyl(4-((9-methyl-2-(methylthio)-5-oxo-5,7,8,9-tetrahydro-6H-pyrimido[4,5-e][1,4]diazepin-6-yl)methyl)benzyl) carbamate], the Ki is above 3000 nM.
Next, `CCNc1ncc2c(n1)N(C)CCN(c1cccc(CO[C@H](CCN(C)C(=O)OC(C)(C)C)c3ccccc3)c1)C2` [Example 65, tert-Butyl (R)-(3-((3-(2-(ethylamino)-9-methyl-5,7,8,9-tetrahydro-6H-pyrimido[4,5-e][1,4]diazepin-6-yl)benzyl)oxy)-3-phenylpropyl)(methyl)carbamate]: above 3000 nM; `CCNc1ncc2c(n1)N(C)CCN(c1cccc(-c3nnc(C)o3)c1)C2` [Example 66, N-ethyl-9-methyl-6-(3-(5-methyl-1,3,4-oxadiazol-2-yl)phenyl)-6,7,8,9-tetrahydro-5H-pyrimido[4,5-e][1,4]diazepin-2-amine]: 500 to 3000 nM; `CCNc1ncc2c(n1)N(C)CCN(Cc1cccc(OC)c1)C2` [Example 67, N-ethyl-6-(3-methoxybenzyl)-9-methyl-6,7,8,9-tetrahydro-5H-pyrimido[4,5-e][1,4]diazepin-2-amine]: above 3000 nM.
Next, `CCNc1ncc2c(n1)N(C)CCN(Cc1ccc(OC)cc1)C2` [Example 68, N-ethyl-6-(4-methoxybenzyl)-9-methyl-6,7,8,9-tetrahydro-5H-pyrimido[4,5-e][1,4]diazepin-2-amine]: above 3000 nM; `CCNc1ncc2c(n1)N(C)CCN(c1cccc(OC(CCN(C)C(=O)OC(C)(C)C)c3ccccc3)c1)C2=O` (centres unmarked) [Example 69, tert-Butyl (3-(3-(2-(ethylamino)-9-methyl-5-oxo-5,7,8,9-tetrahydro-6H-pyrimido[4,5-e][1,4]diazepin-6-yl)phenoxy)-3-phenylpropyl)(methyl)carbamate]: above 3000 nM.
Next, `CCNc1ncc2c(n1)N(C)CCN(c1cccc(O[C@H](CCN(C)C(=O)OC(C)(C)C)c3ccccc3)c1)C2=O` [Example 70, tert-butyl (R)-(3-(3-(2-(ethylamino)-9-methyl-5-oxo-5,7,8,9-tetrahydro-6H-pyrimido[4,5-e][1,4]diazepin-6-yl)phenoxy)-3-phenylpropyl)(methyl) carbamate]: above 3000 nM.
Regarding `CCNc1ncc2c(n1)N(C)CCN(c1cccc(O[C@@H](CCN(C)C(=O)OC(C)(C)C)c3ccccc3)c1)C2=O` [Example 71, tert-butyl (S)-(3-(3-(2-(ethylamino)-9-methyl-5-oxo-5,7,8,9-tetrahydro-6H-pyrimido[4,5-e][1,4]diazepin-6-yl)phenoxy)-3-phenylpropyl)(methyl) carbamate], the Ki is above 3000 nM.
Turning to `CCNc1ncc2c(n1)N(C)CCN(c1cccc(OC(CN(C)C(=O)OC(C)(C)C)c3ccccc3)c1)C2=O` (centres unmarked) [Example 72, tert-butyl (2-(3-(2-(ethylamino)-9-methyl-5-oxo-5,7,8,9-tetrahydro-6H-pyrimido[4,5-e][1,4]diazepin-6-yl)phenoxy)-2-phenylethyl)(methyl) carbamate], the Ki was above 3000 nM.
`CCNc1ncc2c(n1)N(C)CCN(c1cccc(OC(CNC(=O)OC(C)(C)C)c3ccccc3)c1)C2=O` (centres unmarked) [Example 73, tert-butyl (2-(3-(2-(ethylamino)-9-methyl-5-oxo-5,7,8,9-tetrahydro-6H-pyrimido[4,5-e][1,4]diazepin-6-yl)phenoxy)-2-phenylethyl)carbamate]: the Ki is above 3000 nM.
For `CCNc1ncc2c(n1)N(C)CCN(c1cccc(OC(C)CN(C)C(=O)OC(C)(C)C)c1)C2=O` (centres unmarked) [Example 74, tert-butyl (2-(3-(2-(ethylamino)-9-methyl-5-oxo-5,7,8,9-tetrahydro-6H-pyrimido[4,5-e][1,4]diazepin-6-yl)phenoxy)propyl) (methyl)carbamate] the value was above 3000 nM; for `CCNc1ncc2c(n1)N(C)CCN(c1cccc(OC(CN(C)C(=O)OC(C)(C)C)C(C)C)c1)C2=O` (centres unmarked) [Example 75, tert-butyl (2-(3-(2-(ethylamino)-9-methyl-5-oxo-5,7,8,9-tetrahydro-6H-pyrimido[4,5-e][1,4]diazepin-6-yl)phenoxy)-3-methylbutyl) (methyl)carbamate], above 3000 nM; for `CCNc1ncc2c(n1)N(C)CCN(c1ccc(OC(CN(C)C(=O)OC(C)(C)C)c3ccccc3)cc1)C2=O` (centres unmarked) [Example 76, tert-butyl (2-(4-(2-(ethylamino)-9-methyl-5-oxo-5,7,8,9-tetrahydro-6H-pyrimido[4,5-e][1,4]diazepin-6-yl)phenoxy)-2-phenylethyl)(methyl) carbamate], above 3000 nM.
